Where a SMILES comes first, the peptide text is derived from it. The star is where a group is joined. X2 = O=C(O)C(F)(C(=O)O)*; X1 = O=C(O)C(C(=O)O)*
How the values were obtained:
[1] = Ionization constant (pKa2) by treating potentiometric titration data according to the method Noyes; type: physicochemical; settings: read-out: pKa2
[2] = molecular target: T1, Tyrosine-protein phosphatase non-receptor type 1 (Homo sapiens, UniProt P18031); test: Inhibitory activity against Protein-tyrosine phosphatase 1B-mediated dephosphorylation of phosphorylated insulin receptor using (CHO) cell line transfected with an expression plasmid encoding the normal human insulin receptor [CHO/HIRc]
T1 sequence (P18031 whole entry): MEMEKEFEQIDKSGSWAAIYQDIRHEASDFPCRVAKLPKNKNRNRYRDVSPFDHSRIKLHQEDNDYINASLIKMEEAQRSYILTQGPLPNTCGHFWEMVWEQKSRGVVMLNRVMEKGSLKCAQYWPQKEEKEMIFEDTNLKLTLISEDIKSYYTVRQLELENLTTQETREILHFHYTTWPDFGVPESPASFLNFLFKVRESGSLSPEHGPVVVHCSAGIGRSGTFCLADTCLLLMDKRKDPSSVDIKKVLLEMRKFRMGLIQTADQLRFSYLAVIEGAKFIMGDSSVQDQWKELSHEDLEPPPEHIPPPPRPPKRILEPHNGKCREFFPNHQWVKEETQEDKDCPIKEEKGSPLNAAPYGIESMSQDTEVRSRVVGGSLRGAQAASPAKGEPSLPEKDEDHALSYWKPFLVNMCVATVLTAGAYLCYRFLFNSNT

[3] = Inhibition of binding to p85 Phosphatidylinositol 3-kinase C-terminal SH2 domain

Row | SMILES | pKa [1] | IC50 [2] | IC50 [3]
1 | CC(=O)N[C@@H](CC(=O)O)C(=O)N[C@@H](C)C(=O)N[C@@H](CC(=O)O)C(=O)N[C@@H](CCC(=O)O)C(=O)N[C@@H](Cc1ccc(OC(C(=O)O)C(=O)O)cc1)C(=O)N[C@@H](CC(C)C)C(N)=O (Ac-DADEY(X1)L-NH2) | – | 10 µM | –
2 | CSCC[C@H](NC(=O)[C@@H]1CCCN1C(=O)[C@@H](NC(=O)[C@H](Cc1ccc(OC(C(=O)O)C(=O)O)cc1)NC(=O)[C@H](CC(=O)O)NC(C)=O)C(C)C)C(=O)N[C@@H](CC(C)C)C(N)=O (Ac-DY(X1)VPML-NH2) | – | – | 14 µM
3 | CSCC[C@H](NC(=O)[C@@H]1CCCN1C(=O)[C@@H](NC(=O)[C@H](Cc1ccc(OC(F)(C(=O)O)C(=O)O)cc1)NC(=O)[C@H](CC(=O)O)NC(C)=O)C(C)C)C(=O)N[C@@H](CC(C)C)C(N)=O (Ac-DY(X2)VPML-NH2) | – | – | 18 µM

More lines, now with the values ahead:

Row | pKa [1] | IC50 [2] | IC50 [3] | SMILES
4 | 2.84 | – | – | O=C(O)C(F)(Oc1ccc2cc(Br)ccc2c1)C(=O)O
5 | 3.91 | – | – | O=C(O)C(Oc1ccc2cc(Br)ccc2c1)C(=O)O
6 | – | 1 µM | – | CC(=O)N[C@@H](CC(=O)O)C(=O)N[C@@H](C)C(=O)N[C@@H](CC(=O)O)C(=O)N[C@@H](CCC(=O)O)C(=O)N[C@@H](Cc1ccc(OC(F)(C(=O)O)C(=O)O)cc1)C(=O)N[C@@H](CC(C)C)C(N)=O (Ac-DADEY(X2)L-NH2)
